In the assay the target is EZH2 (Homo sapiens (Human), UniProt Q15910). The assay can be described thus: PRC2 enzyme assay on peptide substrates. The format is biochemical. The settings on record: PRC2 enzyme assays on peptide substrates; 4 nM enzyme, 30 min preincubation at 25° C.; read-out: EZH2 IC50. From the text:
General Materials. S-adenosylmethionine (SAM), S-adenosylhomocyteine (SAH), bicine, KCl, Tween20, dimethylsulfoxide (DMSO) and bovine skin gelatin (BSG) were purchased from Sigma-Aldrich at the highest level of purity possible. Dithiothreitol (DTT) was purchased from EMD. ^3H-SAM was purchased from American Radiolabeled Chemicals with a specific activity of 80 Ci/mmol. 384-well streptavidin Flashplates were purchased from PerkinElmer.
Substrates. […] The sequences are listed below.
Recombinant PRC2 Enzymes. Human PRC2 enzymes were purified as 4-component enzyme complexes co-expressed in Spodoptera frugiperda (sf9) cells using a baculovirus expression system. The subunits expressed were wild-type EZH2 (NM_004456) or EZH2 Y641F, N, H, S or C mutants generated from the wild-type EZH2 construct, EED (NM_003797), Suz12 (NM_015355) and RbAp48 (NM_005610). The EED subunit contained an N-terminal FLAG tag that was used to purify the entire 4-component complex from sf9 cell lysates.
General Procedure for PRC2 Enzyme Assays on Peptide Substrates. The assays were all performed in a buffer consisting of 20 mM bicine (pH=7.6), 0.5 mM DTT, 0.005% BSG and 0.002% Tween20, prepared on the day of use. […] DMSO (1 μL) was added to columns 11, 12, 23, 24, rows A-H for the maximum signal control, and SAH, a known product and inhibitor of PRC2 (1 μL) was added to columns 11, 12, 23, 24, rows I-P for the minimum signal control. A cocktail (40 μL) containing the wild-type PRC2 enzyme and H3K27me0 peptide or any of the Y641 mutant enzymes and H3K27me2 peptide was added by Multidrop Combi (Thermo). The compounds were allowed to incubate with PRC2 for 30 min at 25° C., then a cocktail (10 μL) containing a mixture of non-radioactive and ^3H-SAM was added to initiate the reaction (final volume=51 μL). […] The assays were stopped by the addition of non-radioactive SAM (10 μL) to a final concentration of 600 μM, which dilutes the ^3H-SAM to a level where its incorporation into the peptide substrate is no longer detectable. 50 μL of the reaction in the 384-well polypropylene plate was then transferred to a 384-well Flashplate and the biotinylated peptides were allowed to bind to the streptavidin surface for at least 1 h before being washed three times with 0.1% Tween20 in a Biotek ELx405 plate washer. The plates were then read in a PerkinElmer TopCount platereader to measure the quantity of ^3H-labeled peptide bound to the Flashplate surface, measured as disintegrations per minute (dpm) or alternatively, referred to as counts per minute (cpm).
Where dpm=disintegrations per minute, cmpd=signal in assay well, and min and max are the respective minimum and maximum signal controls.
Where top and bottom are the normally allowed to float, but may be fixed at 100 or 0 respectively in a 3-parameter fit. The Hill Coefficient normally allowed to float but may also be fixed at 1 in a 3-parameter fit. Y is the % inhibition and X is the compound concentration.

Some results are limits rather than exact numbers.

Sequence of EZH2 (Q15910 other isoform, or with tags, fused parts or gaps): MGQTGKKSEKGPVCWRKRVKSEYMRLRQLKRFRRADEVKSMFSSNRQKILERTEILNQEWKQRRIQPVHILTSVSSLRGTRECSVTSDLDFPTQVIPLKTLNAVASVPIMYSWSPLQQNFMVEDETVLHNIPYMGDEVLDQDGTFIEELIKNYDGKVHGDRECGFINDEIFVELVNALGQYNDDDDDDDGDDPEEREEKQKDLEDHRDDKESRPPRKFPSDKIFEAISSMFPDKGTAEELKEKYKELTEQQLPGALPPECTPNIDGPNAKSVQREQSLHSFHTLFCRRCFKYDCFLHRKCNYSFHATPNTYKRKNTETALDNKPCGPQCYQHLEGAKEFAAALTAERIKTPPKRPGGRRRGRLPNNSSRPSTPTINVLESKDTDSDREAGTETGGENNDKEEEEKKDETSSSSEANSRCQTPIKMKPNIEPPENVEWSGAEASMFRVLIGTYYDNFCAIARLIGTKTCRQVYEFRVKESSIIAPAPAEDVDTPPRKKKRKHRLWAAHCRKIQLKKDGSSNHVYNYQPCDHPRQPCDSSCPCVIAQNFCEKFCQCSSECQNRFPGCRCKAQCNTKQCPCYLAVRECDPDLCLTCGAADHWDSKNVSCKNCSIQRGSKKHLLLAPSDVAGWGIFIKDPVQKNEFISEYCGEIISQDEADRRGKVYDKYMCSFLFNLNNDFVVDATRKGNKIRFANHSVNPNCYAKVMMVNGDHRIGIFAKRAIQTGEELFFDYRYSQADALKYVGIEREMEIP
Sequence of EZH2 (O75530 whole entry partner): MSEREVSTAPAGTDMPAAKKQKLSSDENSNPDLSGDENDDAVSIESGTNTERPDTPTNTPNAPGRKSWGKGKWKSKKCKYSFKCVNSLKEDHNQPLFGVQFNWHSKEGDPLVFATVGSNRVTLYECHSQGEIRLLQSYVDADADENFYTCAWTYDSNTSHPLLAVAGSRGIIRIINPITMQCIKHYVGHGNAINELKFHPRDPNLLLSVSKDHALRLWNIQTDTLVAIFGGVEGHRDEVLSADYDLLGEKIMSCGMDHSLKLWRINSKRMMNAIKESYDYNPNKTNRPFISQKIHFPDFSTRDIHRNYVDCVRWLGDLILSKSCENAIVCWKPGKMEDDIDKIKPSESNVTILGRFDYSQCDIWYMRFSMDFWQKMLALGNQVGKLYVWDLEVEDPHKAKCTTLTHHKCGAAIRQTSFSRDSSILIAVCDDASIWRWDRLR
Sequence of EZH2 (Q15022 whole entry partner): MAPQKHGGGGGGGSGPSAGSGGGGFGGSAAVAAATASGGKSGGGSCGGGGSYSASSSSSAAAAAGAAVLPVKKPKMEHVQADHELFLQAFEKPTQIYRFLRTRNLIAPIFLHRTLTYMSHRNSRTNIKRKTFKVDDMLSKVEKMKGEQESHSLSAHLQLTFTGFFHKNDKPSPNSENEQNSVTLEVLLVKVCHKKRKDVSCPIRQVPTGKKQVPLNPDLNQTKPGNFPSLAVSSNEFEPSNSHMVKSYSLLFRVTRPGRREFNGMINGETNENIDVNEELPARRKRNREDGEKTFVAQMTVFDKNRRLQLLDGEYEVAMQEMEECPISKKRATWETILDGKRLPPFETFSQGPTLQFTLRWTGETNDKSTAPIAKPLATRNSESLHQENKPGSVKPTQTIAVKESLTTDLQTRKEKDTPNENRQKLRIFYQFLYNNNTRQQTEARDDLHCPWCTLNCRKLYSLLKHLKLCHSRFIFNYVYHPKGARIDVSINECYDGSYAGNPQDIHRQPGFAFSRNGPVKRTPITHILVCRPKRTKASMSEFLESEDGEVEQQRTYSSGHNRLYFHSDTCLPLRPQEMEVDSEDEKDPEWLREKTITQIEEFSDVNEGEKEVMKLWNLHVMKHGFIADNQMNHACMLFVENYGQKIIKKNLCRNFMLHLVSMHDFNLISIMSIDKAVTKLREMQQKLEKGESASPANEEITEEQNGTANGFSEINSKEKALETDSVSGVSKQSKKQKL
Sequence of EZH2 (Q09028 whole entry partner): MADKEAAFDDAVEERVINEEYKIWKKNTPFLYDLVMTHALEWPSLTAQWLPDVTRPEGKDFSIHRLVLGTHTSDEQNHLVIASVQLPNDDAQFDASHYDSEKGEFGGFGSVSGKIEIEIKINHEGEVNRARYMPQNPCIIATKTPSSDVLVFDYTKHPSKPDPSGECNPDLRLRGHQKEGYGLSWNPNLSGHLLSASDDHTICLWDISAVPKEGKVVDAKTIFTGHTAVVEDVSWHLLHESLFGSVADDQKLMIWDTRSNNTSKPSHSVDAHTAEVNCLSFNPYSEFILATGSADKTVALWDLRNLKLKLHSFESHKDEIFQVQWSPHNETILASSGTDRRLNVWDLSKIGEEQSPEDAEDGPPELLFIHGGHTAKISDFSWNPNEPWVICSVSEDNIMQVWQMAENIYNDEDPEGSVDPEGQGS

On to `Cc1cc(C)c(CNC(=O)c2cc(C3=CC(C)(C)NC(C)(C)C3)nc3c2cnn3C2COC2)c(=O)[nH]1` [Compound B-15, N-((4,6-dimethyl-2-oxo-1,2-dihydropyridin-3-yl)methyl)-1-(oxetan-3-yl)-6-(2,2,6,6-tetramethyl-1,2,3,6-tetrahydropyridin-4-yl)-1H-pyrazolo[3,4-b]pyridine-4-carboxamide], for which the IC50 was 300 to 1000 nM.

As to `Cc1cc(C)c(CNC(=O)c2cc(C3=CC(C)(C)NC(C)(C)C3)nc3c2cnn3C2CCCCC2)c(=O)[nH]1` [Compound B-16, 1-cyclohexyl-N-((4,6-dimethyl-2-oxo-1,2-dihydropyridin-3-yl)methyl)-6-(2,2,6,6-tetramethyl-1,2,3,6-tetrahydropyridin-4-yl)-1H-pyrazolo[3,4-b]pyridine-4-carboxamide], the IC50 is below 300 nM.

Regarding `CC(=O)c1cc(C(=O)NCc2c(C)cc(C)[nH]c2=O)c2cnn(C(C)C)c2n1` [Compound B-17, 6-acetyl-N-((4,6-dimethyl-2-oxo-1,2-dihydropyridin-3-yl)methyl)-1-isopropyl-1H-pyrazolo[3,4-b]pyridine-4-carboxamide], the IC50 was 1000 to 3000 nM.

For the compound `CNC(=O)c1cc(C(=O)NCc2c(C)cc(C)[nH]c2=O)c2cnn(C(C)C)c2n1` [Compound B-18, N4-((4,6-dimethyl-2-oxo-1,2-dihydropyridin-3-yl)methyl)-1-isopropyl-N6-methyl-1H-pyrazolo[3,4-b]pyridine-4,6-dicarboxamide], the IC50 fell in the range of 1000 to 3000 nM.

Turning to `Cc1cc(C)c(CNC(=O)c2cc(C3=CCN(C(=O)C4CCNCC4)CC3)nc3c2cnn3C(C)C)c(=O)[nH]1` [Compound B-20, N-((4,6-dimethyl-2-oxo-1,2-dihydropyridin-3-yl)methyl)-1-isopropyl-6-(1-(piperidine-4-carbonyl)-1,2,3,6-tetrahydropyridin-4-yl)-1H-pyrazolo[3,4-b]pyridine-4-carboxamide], the IC50 is below 300 nM.

As to `COCc1cc(C)[nH]c(=O)c1CNC(=O)c1cc(C2=CC(C)(C)NC(C)(C)C2)nc2c1cnn2C(C)C` [Compound B-21, 1-isopropyl-N-((4-(methoxymethyl)-6-methyl-2-oxo-1,2-dihydropyridin-3-yl)methyl)-6-(2,2,6,6-tetramethyl-1,2,3,6-tetrahydropyridin-4-yl)-1H-pyrazolo[3,4-b]pyridine-4-carboxamide], the IC50 lay in the range of 300 to 1000 nM.

Take `Cc1cc(C)c(CNC(=O)c2cc(C=O)nc3c2cnn3C(C)C)c(=O)[nH]1` [Compound B-22, N-((4,6-dimethyl-2-oxo-1,2-dihydropyridin-3-yl)methyl)-6-formyl-1-isopropyl-1H-pyrazolo[3,4-b]pyridine-4-carboxamide]: the IC50 is below 300 nM.

On to `Cc1cc(C)c(CNC(=O)c2cc(C3CCNCC3)nc3c2cnn3C(C)C)c(=O)[nH]1` [Compound B-24, N-((4,6-dimethyl-2-oxo-1,2-dihydropyridin-3-yl)methyl)-1-isopropyl-6-(piperidin-4-yl)-1H-pyrazolo[3,4-b]pyridine-4-carboxamide], for which the IC50 fell in the range of 300 to 1000 nM.

In the case of `CCc1cc(C)[nH]c(=O)c1CNC(=O)c1cc(C2=CC(C)(C)NC(C)(C)C2)nc2c1cnn2C(C)C` [Compound B-25, N-((4-ethyl-6-methyl-2-oxo-1,2-dihydropyridin-3-yl)methyl)-1-isopropyl-6-(2,2,6,6-tetramethyl-1,2,3,6-tetrahydropyridin-4-yl)-1H-pyrazolo[3,4-b]pyridine-4-carboxamide], the IC50 was below 300 nM.

For the compound `CCc1nn(C(C)C)c2nc(C3=CC(C)(C)NC(C)(C)C3)cc(C(=O)NCc3c(C)cc(C)[nH]c3=O)c12` [Compound B-26, N-((4,6-dimethyl-2-oxo-1,2-dihydropyridin-3-yl)methyl)-3-ethyl-1-isopropyl-6-(2,2,6,6-tetramethyl-1,2,3,6-tetrahydropyridin-4-yl)-1H-pyrazolo[3,4-b]pyridine-4-carboxamide], the IC50 lay in the range of 300 to 1000 nM.

As to `Cc1cc(C)c(CNC(=O)c2cc(C3CCN(S(C)(=O)=O)CC3)nc3c2cnn3C(C)C)c(=O)[nH]1` [Compound B-27, N-((4,6-dimethyl-2-oxo-1,2-dihydropyridin-3-yl)methyl)-1-isopropyl-6-(1-(methylsulfonyl)piperidin-4-yl)-1H-pyrazolo[3,4-b]pyridine-4-carboxamide], the IC50 was in the range of 300 to 1000 nM.

Consider `Cc1cc(C)c(CNC(=O)c2cc(C3=CCN(C(=O)C4CCCNC4)CC3)nc3c2cnn3C(C)C)c(=O)[nH]1` (stereo not shown) [Compound B-28, N-((4,6-dimethyl-2-oxo-1,2-dihydropyridin-3-yl)methyl)-1-isopropyl-6-(1-(piperidine-3-carbonyl)-1,2,3,6-tetrahydropyridin-4-yl)-1H-pyrazolo[3,4-b]pyridine-4-carboxamide], for which the IC50 is below 300 nM.

In the case of `Cc1cc(C)c(CNC(=O)c2cc(C3CCN(C4CCNCC4)CC3)nc3c2cnn3C(C)C)c(=O)[nH]1` [Compound B-29, 6-([1,4′-bipiperidin]-4-yl)-N-((4,6-dimethyl-2-oxo-1,2-dihydropyridin-3-yl)methyl)-1-isopropyl-1H-pyrazolo[3,4-b]pyridine-4-carboxamide], the IC50 is below 300 nM.

Turning to `Cc1cc(C)c(CNC(=O)c2cc(C3=CCN(C(=O)C4CNC4)CC3)nc3c2cnn3C(C)C)c(=O)[nH]1` [Compound B-30, 6-(1-(azetidine-3-carbonyl)-1,2,3,6-tetrahydropyridin-4-yl)-N-((4,6-dimethyl-2-oxo-1,2-dihydropyridin-3-yl)methyl)-1-isopropyl-1H-pyrazolo[3,4-b]pyridine-4-carboxamide], the IC50 is below 300 nM.

With `Cc1cc(C)c(CNC(=O)c2cc(C3=CCN(C(=O)C4CCN(C)C4)CC3)nc3c2cnn3C(C)C)c(=O)[nH]1` (stereo not shown) [Compound B-31, N-((4,6-dimethyl-2-oxo-1,2-dihydropyridin-3-yl)methyl)-1-isopropyl-6-(1-(1-methylpyrrolidine-3-carbonyl)-1,2,3,6-tetrahydropyridin-4-yl)-1H-pyrazolo[3,4-b]pyridine-4-carboxamide], the IC50 is below 300 nM.

On to `Cc1cc(C)c(CNC(=O)c2cc(C3=CCN(C(=O)C4CCCN(C)C4)CC3)nc3c2cnn3C(C)C)c(=O)[nH]1` (stereo not shown) [Compound B-32, N-((4,6-dimethyl-2-oxo-1,2-dihydropyridin-3-yl)methyl)-1-isopropyl-6-(1-(1-methylpiperidine-3-carbonyl)-1,2,3,6-tetrahydropyridin-4-yl)-1H-pyrazolo[3,4-b]pyridine-4-carboxamide], for which the IC50 is below 300 nM.

For `Cc1cc(C)c(CNC(=O)c2cc(C3=CCN(C4CCN(CCS(C)(=O)=O)CC4)CC3)nc3c2cnn3C(C)C)c(=O)[nH]1` [Compound B-33, N-((4,6-dimethyl-2-oxo-1,2-dihydropyridin-3-yl)methyl)-1-isopropyl-6-(1-(1-(2-(methylsulfonyl)ethyl)piperidin-4-yl)-1,2,3,6-tetrahydropyridin-4-yl)-1H-pyrazolo[3,4-b]pyridine-4-carboxamide], the IC50 is below 300 nM.

As to `Cc1cc(C)c(CNC(=O)c2cc(C3=CCN(C(=O)C4CCN(C)CC4)CC3)nc3c2cnn3C(C)C)c(=O)[nH]1` [Compound B-34, N-((4,6-dimethyl-2-oxo-1,2-dihydropyridin-3-yl)methyl)-1-isopropyl-6-(1-(1-methylpiperidine-4-carbonyl)-1,2,3,6-tetrahydropyridin-4-yl)-1H-pyrazolo[3,4-b]pyridine-4-carboxamide], the IC50 is below 300 nM.

For `Cc1cc(C)c(CNC(=O)c2cc(C3CCN(C4CCN(S(C)(=O)=O)CC4)CC3)nc3c2cnn3C(C)C)c(=O)[nH]1` [Compound B-35, N-((4,6-dimethyl-2-oxo-1,2-dihydropyridin-3-yl)methyl)-1-isopropyl-6-(1′-(methylsulfonyl)-[1,4′-bipiperidin]-4-yl)-1H-pyrazolo[3,4-b]pyridine-4-carboxamide], the IC50 is below 300 nM.

As to `Cc1cc(C)c(CNC(=O)c2cc(C3=CC(C)(C)NC(C)(C)C3)nc3c2cnn3C(C)C)c(=O)[nH]1` [Compound B-36], the IC50 lay in the range of 300 to 1000 nM.

With `Cc1cc(C)c(CNC(=O)c2cc(C3=CCN(C4CCNCC4)CC3)nc3c2cnn3C(C)C)c(=O)[nH]1` [Compound B-38], the IC50 lay in the range of 300 to 1000 nM.

As for `CNCC(=O)N1CC=C(c2cc(C(=O)NCc3c(C)cc(C)[nH]c3=O)c3cnn(C(C)C)c3n2)CC1` [Compound B-39], the IC50 was 300 to 1000 nM.

A word on the IC50: it is the concentration that gives 50% inhibition.

These data come from patent US9637472B2, “Substituted 6,5-fused bicyclic heteroaryl compounds” (Epizyme, Inc., priority 2011, dated 2017).
